Values quoted from earlier work, collected in publication PMC9516332 (Frontiers in Oncology, 2022).
Where two headings read alike, the source gives them in different places.

Legend:
Conditions in all cases: cited from earlier work
[1] = biological target: T1, panel of 255 wild-type kinases (Homo sapiens, UniProt O15111)
T1 sequence (O15111 1-745): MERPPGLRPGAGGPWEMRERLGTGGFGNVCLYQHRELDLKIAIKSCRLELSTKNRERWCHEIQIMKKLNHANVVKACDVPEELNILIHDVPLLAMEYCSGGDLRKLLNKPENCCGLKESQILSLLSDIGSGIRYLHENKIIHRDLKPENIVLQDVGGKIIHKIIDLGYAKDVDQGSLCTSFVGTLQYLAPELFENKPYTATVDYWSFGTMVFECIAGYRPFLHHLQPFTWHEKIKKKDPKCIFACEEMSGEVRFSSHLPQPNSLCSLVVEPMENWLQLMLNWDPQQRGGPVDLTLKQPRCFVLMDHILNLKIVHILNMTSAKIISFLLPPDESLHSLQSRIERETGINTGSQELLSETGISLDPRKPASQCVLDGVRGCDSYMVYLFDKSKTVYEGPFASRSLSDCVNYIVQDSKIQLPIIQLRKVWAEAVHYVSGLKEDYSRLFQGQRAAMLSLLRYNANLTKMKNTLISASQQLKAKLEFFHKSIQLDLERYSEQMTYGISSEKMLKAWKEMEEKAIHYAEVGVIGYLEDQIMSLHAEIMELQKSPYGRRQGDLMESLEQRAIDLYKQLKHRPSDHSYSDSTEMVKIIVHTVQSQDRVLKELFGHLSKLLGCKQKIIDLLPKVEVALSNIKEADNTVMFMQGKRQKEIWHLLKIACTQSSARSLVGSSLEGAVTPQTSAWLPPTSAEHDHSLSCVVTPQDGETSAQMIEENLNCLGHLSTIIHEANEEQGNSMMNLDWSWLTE

[2] = biological target: panel of 255 wild-type kinases (Homo sapiens, UniProt P09619)
[3] = biological target: panel of 255 wild-type kinases (Homo sapiens, UniProt P14616)
[4] = biological target: panel of 255 wild-type kinases (Homo sapiens, UniProt P35968)
[5] = biological target: T2, panel of 255 wild-type kinases (Homo sapiens, UniProt P36888)
T2 sequence (P36888 27-993): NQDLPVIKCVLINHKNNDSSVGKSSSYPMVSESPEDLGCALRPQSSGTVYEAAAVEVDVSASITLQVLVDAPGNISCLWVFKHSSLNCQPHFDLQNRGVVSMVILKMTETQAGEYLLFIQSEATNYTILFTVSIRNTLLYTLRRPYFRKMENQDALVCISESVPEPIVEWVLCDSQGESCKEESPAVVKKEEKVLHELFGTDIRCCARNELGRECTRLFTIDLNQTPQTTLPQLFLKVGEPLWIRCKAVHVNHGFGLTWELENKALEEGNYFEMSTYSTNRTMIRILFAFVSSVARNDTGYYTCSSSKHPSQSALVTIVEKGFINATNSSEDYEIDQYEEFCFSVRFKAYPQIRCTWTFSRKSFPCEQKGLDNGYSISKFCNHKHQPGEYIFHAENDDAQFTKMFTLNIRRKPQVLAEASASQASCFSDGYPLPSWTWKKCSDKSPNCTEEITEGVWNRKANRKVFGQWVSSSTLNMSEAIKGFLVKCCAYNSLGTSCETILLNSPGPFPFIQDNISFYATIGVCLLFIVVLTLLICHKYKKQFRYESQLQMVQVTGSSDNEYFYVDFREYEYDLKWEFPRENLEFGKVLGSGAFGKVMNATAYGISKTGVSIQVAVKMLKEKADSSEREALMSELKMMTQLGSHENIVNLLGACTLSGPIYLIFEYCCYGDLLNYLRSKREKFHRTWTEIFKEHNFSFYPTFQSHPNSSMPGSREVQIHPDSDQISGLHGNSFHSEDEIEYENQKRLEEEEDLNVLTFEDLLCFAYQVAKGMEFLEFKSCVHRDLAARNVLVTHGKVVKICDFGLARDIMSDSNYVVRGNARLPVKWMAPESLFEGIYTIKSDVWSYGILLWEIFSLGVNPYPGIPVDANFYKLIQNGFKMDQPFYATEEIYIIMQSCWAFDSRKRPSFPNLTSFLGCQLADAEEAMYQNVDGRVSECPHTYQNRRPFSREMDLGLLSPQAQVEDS

[6] = biological target: panel of 255 wild-type kinases (Homo sapiens, UniProt P43405)
[7] = biological target: panel of 255 wild-type kinases (Homo sapiens, UniProt P53779)
[8] = biological target: panel of 255 wild-type kinases (Homo sapiens, UniProt Q04912)
[9] = biological target: panel of 255 wild-type kinases (Homo sapiens, UniProt Q9H4B4)
[10] = biological target: panel of 255 wild-type kinases (Homo sapiens, UniProt Q9HBH9)
[11] = biological target: panel of 255 wild-type kinases (Homo sapiens, UniProt Q9HCP0)
[12] = kinase IKKα, 1 µmol/L single concentration, ref DOI: 10.1158/1535-7163.MCT-18-0877
[13] = kinase PDGFRβ, 1 µmol/L single concentration, ref DOI: 10.1158/1535-7163.MCT-18-0877
[14] = kinase IRR, 1 µmol/L single concentration, ref DOI: 10.1158/1535-7163.MCT-18-0877
[15] = kinase KDR, 1 µmol/L single concentration, ref DOI: 10.1158/1535-7163.MCT-18-0877
[16] = kinase FLT3, 1 µmol/L single concentration, ref DOI: 10.1158/1535-7163.MCT-18-0877
[17] = kinase SYK, 1 µmol/L single concentration, ref DOI: 10.1158/1535-7163.MCT-18-0877
[18] = kinase JNK3, 1 µmol/L single concentration, ref DOI: 10.1158/1535-7163.MCT-18-0877
[19] = kinase RON, 1 µmol/L single concentration, ref DOI: 10.1158/1535-7163.MCT-18-0877
[20] = kinase PLK3, 1 µmol/L single concentration, ref DOI: 10.1158/1535-7163.MCT-18-0877
[21] = MNK2, 1 µmol/L single concentration, ref DOI: 10.1158/1535-7163.MCT-18-0877
[22] = kinase CK1γ1, 1 µmol/L single concentration, ref DOI: 10.1158/1535-7163.MCT-18-0877

Structure (SMILES) | %-inhibition at 1 µmol/L, IKKα [1, 12] | %-inhibition at 1 µmol/L, PDGFRβ [2, 13] | %-inhibition at 1 µmol/L, IRR [3, 14] | %-inhibition at 1 µmol/L, KDR [4, 15] | %-inhibition at 1 µmol/L, FLT3 [5, 16] | %-inhibition at 1 µmol/L, SYK [6, 17] | %-inhibition at 1 µmol/L, JNK3 [7, 18] | %-inhibition at 1 µmol/L, RON [8, 19] | %-inhibition at 1 µmol/L, PLK3 [9, 20] | %-inhibition, MNK2 [10, 21] | %-inhibition at 1 µmol/L, CK1γ1 [11, 22] | further results
O=C(c1ccc(F)c(F)c1Nc1ccc(I)cc1F)N1CC(O)([C@@H]2CCCCN2)C1 [cobimetinib] | 1.07% | 2% | -0.403% | 13% | -0.393% | -23% | -0.412% | -9% | 4% | 8% | 2.67% | 
CC#CC(=O)N1CCC[C@H]1c1nc(-c2ccc(C(=O)Nc3ccccn3)cc2)c2c(N)nccn12 [acalabrutinib] | -1.45% | 5.36% | -0.87% | 7% | 3.27% | -19% | -0.893% | 8% | 1.76% | 12% | 0.334% | 
CCc1cc2c(cc1N1CCC(N3CCOCC3)CC1)C(C)(C)c1[nH]c3cc(C#N)ccc3c1C2=O [alectinib] | -0.856% | 26% | 57% | 18% | 78% | -9% | -0.533% | 10% | -4% | 13% | -0.412% | 
COc1cc(N2CCC(N3CCN(C)CC3)CC2)ccc1Nc1ncc(Cl)c(Nc2ccccc2P(C)(C)=O)n1 [brigatinib] |  |  |  |  |  |  |  |  |  |  |  | %-inhibition at 1 µmol/L, IKKα [1]: -0.856%; %-inhibition at 1 µmol/L, PDGFRβ [2]: 94%; %-inhibition at 1 µmol/L, IRR [3]: 99%; %-inhibition at 1 µmol/L, KDR [4]: 86%; %-inhibition at 1 µmol/L, FLT3 [5]: 101%; %-inhibition at 1 µmol/L, SYK [6]: 68%; %-inhibition at 1 µmol/L, JNK3 [7]: 52%; %-inhibition at 1 µmol/L, RON [8]: 18%; %-inhibition at 1 µmol/L, PLK3 [9]: -2.57%; %-inhibition, MNK2 [10]: 66%; %-inhibition at 1 µmol/L, CK1γ1 [11]: 1.13%
